Assay results from patent EP1144365B1 (TANABE SEIYAKU CO., LTD., priority 1998, dated 2000).

Columns and labels:
α4β1 integrin = biological target: T1, α4β1 integrin (Homo sapiens, UniProt P05556+P13612); assay: Jurkat-Endothelial Cell Adhesion Assay (Jurkat EC); type: cell-based; conditions: Jurkat cell adhesion to IL-1 stimulated endothelial cell monolayers
T1 construct: a T-cell line, Jurkat, known to express the α4β1 integrin; host or cells: Jurkat T-cell line
Experimental: The following assay established the activity of the present compounds in inhibiting β1-mediated cell adhesion in a representative in vitro system. This assay measures the adhesive interactions of a T-cell line, Jurkat, known to express the α4β1 integrin, to endothelial monolayers in the presence of test compounds. The test compounds were added in increasing concentrations to T-cells and then the T-cell compound mixture was added to IL-1 stimulated endothelial cell monolayers. The plates were incubated, washed and the percentage of attached cells was quantitated.
Human umbilical vein endothelial cells were purchased from Clonetics (San Diego, CA.) at passage number 2. The cells were grown on 0.5% porcine skin gelatin pre-coated flasks (Sigma, St. Louis MO.) in EGM-UV media (Clonetics, San Diego, CA) supplemented with 10% fetal bovine serum. Cells are refed every 2-3 days reaching confluence by day 4 to 6. […] The endothelial cells are not used following passage 6.
The T-cell line Jurkat was obtained from American Type Tissue Culture Collection (Rockville, MD) and the cells were cultured in RPMI containing 10 % fetal calf serum. The cells were washed twice in Hank's Balanced Salt Solution (HBSS) and resuspended in Dulbecco's Minimal Eagle's Media (DMEM) containing 2.5 mg/ml Human Serum Albumin (HSA). Jurkat cells (1x10^6 cells/ml) were stained with 10 ng/ml BCECF-AM (Molecular Probes, Eugene, OR)) in HBSS without phenol red. The cells were loaded with BCECF for 60 minutes in the dark at 37°C, washed 2 times, and resuspended in DMEM-HSA solution.
Confluent endothelial monolayers, grown in 96-well tissue culture plates, were stimulated for 4 hr. at 37 °C with 0.1 ng/ml (∼50 U/ml) recombinant IL-1 (Amgen, Thousand Oaks, CA). Following this incubation, the monolayers were washed twice with HBSS and 0.1 ml of DMEM-HSA solution was added. Jurkat cells (5 x 10^5 cells) were combined with the appropriate concentration of the test compound and 0.1 ml of the Jurkat cell-compound mixture was added to the endothelial cell monolayers. Generally, 100, 20, 5 and 1.25 µM compound concentrations were tested. […] Following this incubation, the monolayers were washed twice with PBS containing 1 mM calcium chloride and 1 mM magnesium chloride' and the plates were read using a Millipore Cytofluor 2300 (Marlboro, MA.). Fluorescence in each well was measured as Arbitrary Fluorescence Units and percent adhesion in the absence of compound was adjusted to 100% and the % adhesion in the presence of compound was calculated. Monolayers were also fixed in 3% paraformaldehyde and evaluated microscopically to verify the adhesion. This procedure is a modification of a previously published method (Cardarelli et al., J. Biol. Chem. 269:18668-18673 (1994)).

α4β1 = biological target: T2, α4β1 (Homo sapiens, UniProt P05556+P13612); assay: Jurkat-CS-1 assay; type: cell-based; conditions: Jurkat cell adhesion to immobilized CS-1 derived peptide
T2 construct: 100 µl of Jurkat cells (2.5 x 10^6 cells/ml) in DMEM plus BSA; host or cells: Jurkat T-cell line
Experimental: The CS-1 derived peptide, CLHPGEILDVPST, and the scrambled control peptide, CLHGPIELVSDPT, were synthesized on a Beckman 990 synthesizer using t-Boc methodology. The peptides were immobilized onto microtiter plates using the heterobifunctional crosslinker 3-(2-pyridyldithio)propionic acid N-hydroxysuccinimide ester (SPDP) as reported by Pierschbacher et al., Proc. Natl. Acad. USA, 80:1224-1227 (1983). Microtiter plates were coated with 20 µg/ml HSA for 2 hr. at room temperature, washed once with PBS and derivatized with 10 µg/ml SPDP for 1 hr. After washing, 100 µl of a 100 µg/ml cysteine containing peptide solution which had been recently dissolved was added to the wells and allowed to crosslink to the plates overnight at 4 °C. Unbound peptide was removed from plates by washing with PBS. To block non-reacted sites, the plates are coated with 100 µl of a 2.5 mg/ml BSA solution in PBS for 1 hr. at 37 °C. 100 µl of Jurkat cells (2.5 x 10^6 cells/ml) in DMEM plus BSA (2.5 mg/ml) was mixed with an appropriate concentration of the compound to be tested and the mixture was added to peptide coated dishes and incubated for 1 hr. at 37 °C. Generally 100, 20, 5 and 1.25 µM concentrations of the compound were tested.
Following this incubation the plates were washed once with PBS and the attached cells were fixed with 3% paraformaldehyde in PBS and stained with 0.5% toluidine blue in 3.7% formaldehyde. The cells were stained overnight at room temperature and the optical density at 590 nm of toluidine blue stained cells was determined using a vertical pathway spectrophotometer to quantitate attachment (VMAX Kinetic Microplate Reader, Molecular Devices, Menlo Park, CA). This procedure is a modification of a previously published method (Cardarelli et al, J. Biol. Chem., 269:18668-18673 (1994) and Cardarelli et al, Proc. Natl. Acad. Sci. USA, 83:2647-2651 (1986)).

T1 sequence (P13612 34-1032): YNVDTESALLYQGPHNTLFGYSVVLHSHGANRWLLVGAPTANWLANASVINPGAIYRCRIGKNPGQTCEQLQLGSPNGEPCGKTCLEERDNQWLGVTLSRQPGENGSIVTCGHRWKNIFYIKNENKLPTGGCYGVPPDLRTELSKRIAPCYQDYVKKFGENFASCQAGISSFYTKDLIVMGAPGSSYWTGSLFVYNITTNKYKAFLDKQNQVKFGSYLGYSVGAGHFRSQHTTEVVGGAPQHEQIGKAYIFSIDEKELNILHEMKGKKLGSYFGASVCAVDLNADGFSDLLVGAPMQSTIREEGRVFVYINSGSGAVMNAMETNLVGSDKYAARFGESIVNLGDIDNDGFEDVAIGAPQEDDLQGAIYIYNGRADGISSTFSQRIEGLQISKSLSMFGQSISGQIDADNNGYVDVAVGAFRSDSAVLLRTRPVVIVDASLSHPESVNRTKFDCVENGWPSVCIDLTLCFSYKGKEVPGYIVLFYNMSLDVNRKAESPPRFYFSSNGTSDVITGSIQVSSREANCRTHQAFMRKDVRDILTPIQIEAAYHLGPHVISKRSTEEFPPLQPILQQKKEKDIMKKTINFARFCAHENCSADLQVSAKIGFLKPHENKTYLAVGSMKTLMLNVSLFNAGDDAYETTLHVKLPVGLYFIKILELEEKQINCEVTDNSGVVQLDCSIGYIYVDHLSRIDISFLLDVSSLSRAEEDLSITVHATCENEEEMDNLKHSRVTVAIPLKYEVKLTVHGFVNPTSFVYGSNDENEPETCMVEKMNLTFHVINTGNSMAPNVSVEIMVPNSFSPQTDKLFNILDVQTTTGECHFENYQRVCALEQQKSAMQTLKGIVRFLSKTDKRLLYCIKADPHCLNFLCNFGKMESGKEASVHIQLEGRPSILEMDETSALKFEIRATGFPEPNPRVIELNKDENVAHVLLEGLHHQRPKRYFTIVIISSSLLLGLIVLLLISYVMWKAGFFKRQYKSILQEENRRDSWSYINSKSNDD
T1 sequence (P05556 21-798): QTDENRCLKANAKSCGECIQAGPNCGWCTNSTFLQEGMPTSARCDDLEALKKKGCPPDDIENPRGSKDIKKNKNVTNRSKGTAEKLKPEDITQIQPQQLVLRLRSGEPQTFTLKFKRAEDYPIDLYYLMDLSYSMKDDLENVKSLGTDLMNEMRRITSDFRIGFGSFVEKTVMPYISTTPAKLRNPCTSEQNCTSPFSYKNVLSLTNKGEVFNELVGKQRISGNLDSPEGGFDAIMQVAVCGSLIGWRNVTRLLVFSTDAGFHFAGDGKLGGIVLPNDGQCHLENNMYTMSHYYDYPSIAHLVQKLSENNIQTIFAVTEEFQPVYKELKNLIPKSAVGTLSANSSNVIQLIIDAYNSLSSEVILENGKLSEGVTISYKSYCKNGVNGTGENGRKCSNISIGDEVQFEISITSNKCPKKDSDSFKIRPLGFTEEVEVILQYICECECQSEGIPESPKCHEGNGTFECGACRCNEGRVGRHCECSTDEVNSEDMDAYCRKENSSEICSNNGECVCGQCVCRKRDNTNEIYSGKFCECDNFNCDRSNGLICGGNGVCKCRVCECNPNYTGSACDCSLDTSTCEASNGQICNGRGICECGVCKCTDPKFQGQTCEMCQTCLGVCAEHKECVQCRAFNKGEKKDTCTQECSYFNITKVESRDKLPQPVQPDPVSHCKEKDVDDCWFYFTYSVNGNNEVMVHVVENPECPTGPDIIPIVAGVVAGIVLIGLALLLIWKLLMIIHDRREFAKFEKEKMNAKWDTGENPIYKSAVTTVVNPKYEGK
T2 sequence (P13612 34-1032): as the sequence (P13612 34-1032) above
T2 sequence (P05556 21-798): as the sequence (P05556 21-798) above

| IC50 (α4β1 integrin) [µM] | IC50 (α4β1) [µM] | SMILES |
| --- | --- | --- |
| 0.8 to 5 | – | CC1(C)[C@@H](C(=O)N[C@@H](Cc2ccc(OCc3c(Cl)cccc3Cl)cn2)C(=O)O)C[C@H]1C(=O)O (relative stereo) [Example 109, [1S-[1α(R*),3α]]-α-[[(3-Carboxy-2,2-dimethylcyclobutyl)carbonyl]amino]-3-[(2,6-dichlorophenyl)methoxy]-6-pyridinepropanoic acid] |
| 0.8 to 5 | 0.5 to 1 | O=C(Nc1ccc(C[C@H](NC(=O)[C@@H]2CCC[C@H]2C(=O)O)C(=O)O)cc1)c1c(Cl)cccc1Cl [Example 9] |
| 5 to 10 | – | O=C(Nc1ccc(C[C@H](NC(=O)N2CCCC[C@H]2C(=O)O)C(=O)O)cc1)c1c(Cl)cccc1Cl [Example 11] |
| 0.8 to 5 | – | CC(Oc1cccc(C(=O)O)c1)C(=O)N[C@@H](Cc1ccc(NC(=O)c2c(Cl)cccc2Cl)cc1)C(=O)O (some centres unmarked) [Example 14] |
| 0.8 to 5 | – | CC(C)(Oc1cccc(C(=O)O)c1)C(=O)N[C@@H](Cc1ccc(NC(=O)c2c(Cl)cccc2Cl)cc1)C(=O)O [Example 15] |
| 0.8 to 5 | – | O=C(O)c1cccc(OC(C(=O)N[C@@H](Cc2ccc(NC(=O)c3c(Cl)cccc3Cl)cc2)C(=O)O)c2ccccc2)c1 (some centres unmarked) [Example 16] |
| 0.8 to 5 | – | CC(C)(Oc1cccc(/C=C/C(=O)O)c1)C(=O)N[C@@H](Cc1ccc(NC(=O)c2c(Cl)cccc2Cl)cc1)C(=O)O [Example 22] |
| 5 to 10 | – | CC(Sc1ccccc1C(=O)O)C(=O)N[C@@H](Cc1ccc(NC(=O)c2c(Cl)cccc2Cl)cc1)C(=O)O (some centres unmarked) [Example 24] |
| 0.8 to 5 | – | CC(Oc1ccccc1C(=O)O)C(=O)N[C@@H](Cc1ccc(NC(=O)c2c(Cl)cccc2Cl)cc1)C(=O)O (some centres unmarked) [Example 28] |
| – | 0.5 to 1 | O=C(O)CCC(=O)Nc1cccc(C(=O)N[C@@H](Cc2ccc(NC(=O)c3c(Cl)cccc3Cl)cc2)C(=O)O)c1 [Example 34] |
| – | 0.5 to 1 | CC(=O)CCC(=O)Nc1cccc(C(=O)N[C@@H](Cc2ccc(NC(=O)c3c(Cl)cccc3Cl)cc2)C(=O)O)c1 [Example 39] |
| 5 to 10 | – | O=C(N[C@@H](Cc1ccc(NC(=O)c2c(Cl)cccc2Cl)cc1)C(=O)O)c1cccc(NC(=O)c2ccccc2C(=O)O)c1 [Example 41] |
| – | 0.5 to 1 | O=C(O)CNC(=O)NC1(C(=O)N[C@@H](Cc2ccc(NC(=O)c3c(Cl)cccc3Cl)cc2)C(=O)O)CCCCC1 [Example 54] |
| – | 0.5 to 1 | O=C(Nc1ccc(C(=O)O)cc1)NC1(C(=O)N[C@@H](Cc2ccc(NC(=O)c3c(Cl)cccc3Cl)cc2)C(=O)O)CCCCC1 [Example 60] |
| 0.8 to 5 | – | CC(O)[C@@H]1C[C@H](CC(=O)N[C@@H](Cc2ccc(NC(=O)c3c(Cl)cccc3Cl)cc2)C(=O)O)C1(C)C (stereo partly drawn) [Example 92, [1R-(1α,3α)]-4-[(2,6-Dichlorobenzoyl)amino]-N-[[3-(1-hydroxyethyl)-2,2-dimethylcyclobutyl]acetyl]-L-phenylalanine] |
| 0.8 to 5 | – | CC1(C)[C@@H](C(=O)N[C@@H](Cc2ccc(NC(=O)c3ccc(Cl)nc3Cl)cc2)C(=O)O)C[C@H]1C(=O)O [Example 108, (1S-cis)-N-[(3-Carboxy-2,2-dimethylcyclobutyl)carbonyl] -4-[[(2,6-dichloro-3-pyridinyl)carbonyl]amino]-L-phenylalanine] |

Further lines, the molecule ahead of its results:

| SMILES | IC50 (α4β1 integrin) [µM] | IC50 (α4β1) [µM] |
| --- | --- | --- |
| O=C(Nc1ccc(C[C@H](NC(=O)[C@H]2CC[C@@H](C(=O)O)C2)C(=O)O)cc1)c1c(Cl)cccc1Cl (mixture of isomers) [Example 112, N-[cis-(3-Carboxycyclopentyl)carbonyl]-4-[(2,6-dichlorobenzoyl)amino]-L-phenylalanine] | 0.8 to 5 | 0.08 to 0.5 |
| O=C(O)c1cccc(C(=O)N[C@H]2CCCC[C@H]2C(=O)N[C@@H](Cc2ccc(NC(=O)c3c(Cl)cccc3Cl)cc2)C(=O)O)n1 (relative stereo) [Example 80] | 0.8 to 5 | 0.08 to 0.5 |
| O=C(N[C@@H](Cc1ccc(NC(=O)c2c(Cl)cccc2Cl)cc1)C(=O)O)c1ccc(O)c(CN2CCOCC2)c1 [Example 4] | 0.8 to 5 | – |
| O=C(Nc1ccc(CC(NC(=O)C2CCCCC2C(=O)O)C(=O)O)cc1)c1c(Cl)cccc1Cl (centres unmarked) [Example 8] | 0.8 to 5 | – |
| O=C(COc1ccc(C(=O)O)cc1)N[C@@H](Cc1ccc(NC(=O)c2c(Cl)cccc2Cl)cc1)C(=O)O [Example 12, N-[(4-carboxyphenoxy)acetyl]-4-[(2,6-dichlorobenzoyl)amino]-L-phenylalanine] | – | 0.5 to 1 |
| CC(=O)c1cccc(OC(C)C(=O)N[C@@H](Cc2ccc(NC(=O)c3c(Cl)cccc3Cl)cc2)C(=O)O)c1 (some centres unmarked) [Example 18] | 0.8 to 5 | – |
| CC(=O)c1cccc(OC(C)(C)C(=O)N[C@@H](Cc2ccc(NC(=O)c3c(Cl)cccc3Cl)cc2)C(=O)O)c1 [Example 19] | 0.8 to 5 | 0.5 to 1 |
| CC(Oc1cccc(/C=C/C(=O)O)c1)C(=O)N[C@@H](Cc1ccc(NC(=O)c2c(Cl)cccc2Cl)cc1)C(=O)O (some centres unmarked) [Example 21] | 5 to 10 | – |
| O=C(O)CNC(=O)Nc1cccc(C(=O)N[C@@H](Cc2ccc(NC(=O)c3c(Cl)cccc3Cl)cc2)C(=O)O)c1 [Example 33, N-[3-[(N'-Carboxymethyl)ureido]benzoyl]-4-[(2,6-dichlorobenzoyl)amino]-L-phenylalanine] | – | 0.08 to 0.5 |
| O=C(O)c1cccc(C(=O)Nc2cccc(C(=O)N[C@@H](Cc3ccc(NC(=O)c4c(Cl)cccc4Cl)cc3)C(=O)O)c2)c1 [Example 42] | – | 0.5 to 1 |
| CC1(C)[C@H](CC(=O)N[C@@H](Cc2ccc(NC(=O)c3c(Cl)cccc3Cl)cc2)C(=O)O)C[C@@H]1C(=O)O [Example 90, (1S-cis)-N-[(3-Carboxy-2,2-dimethylcyclobutyl)acetyl]-4-[(2,6-dichlorobenzoyl)amino]-L-phenylalanine] | 5 to 10 | – |
| CC1(C)[C@@H](C(=O)N[C@@H](Cc2ccc(OCc3c(Cl)cccc3Cl)cc2)C(=O)O)C[C@H]1C(=O)O [Example 95, (1S-cis)-N-[(3-Carboxy-2,2-dimethylcyclobutyl)carbonyl]-4-[(2,6-dichlorophenyl)methoxy]-L-phenylalanine] | – | 0.5 to 1 |
| O=C(Nc1ccc(C[C@H](NC(=O)N2CCC(C(=O)O)CC2)C(=O)O)cc1)c1c(Cl)cccc1Cl [Example 113, 1-[[[(1S)-1-carboxy-2-[4-[(2,6-dichlorobenzoyl)amino]phenyl]ethyl]amino]carbonyl]-4-piperidinecarboxylic acid] | 0.8 to 5 | – |
| CC1=C(C(=O)O)C(C)(C)CC/C1=C\C(=O)N[C@@H](Cc1ccc(NC(=O)c2c(Cl)cccc2Cl)cc1)C(=O)O [Example 121, N-[(1E)-3-Carboxy-2,4,4-trimethyl-2-cyclohexen-1-ylideneacetyl]-4-[(2,6-dichlorobenzoyl)amino]-L-phenylalanine] | 0.8 to 5 | – |
| O=C(/C=C1/CCCc2c(C(=O)O)cccc21)N[C@@H](Cc1ccc(NC(=O)c2c(Cl)cccc2Cl)cc1)C(=O)O [Example 137, N-[(1Z)-5-Carboxy-3,4-dihydro-1(2H)-naphthalenylideneacetyl]-4-[(2,6-dichlorobenzoyl)amino] -L-phenylalanine] | 5 to 10 | – |
